This data set can be described thus: Solubility of monomers and polymers in water and organic solvents. The format is physicochemical. The text has this: The DM trgel monomers as prepared by the methods exemplified in Examples 1-5 above were converted to polymers by the anionic polymerization reaction as illustrated in Reaction Scheme A and the physical properties of homopolymers of differing monomers are presented in Table 1. With reference to Table 1 it should be noted that all of the resulting polymers have very low poly dispersity (Mw/Mn). […] All trgel monomers can be copolymerized randomly or in blocks. Copolymerization of water-soluble and water insoluble monomers results in polymers with controlled solubility in water, including gel forming polymers. Water-soluble polymers are particularly useful in biological applications such as surface protection from non-specific adsorption. The data also illustrates that the glass transition temperature (Tg) of polymers with alkyl substituents decreases as the alkyl chain length increases. […] The DM trgel polymers wherein R=2-methoxyethyl or R=2-(2-methoxyethoxyethyl) show lower critical solution temperature (LCST) behavior.

Consider three compounds from US9149791B2, “Water-soluble carbohydrate polyethers” (TRGel, LLC, priority 2008, dated 2015).

As for `CCCCCCCCCCO[C@H]1[C@@H]2O[C@@H]2[C@@H]2OC[C@H]1O2` [DDM, 1,6:2,3-dianhydro-4-O-decyl-β-D-mannopyranose], the Solubility in hexane result (hexane) is “soluble”.
For `COCCOCCOCCOC1C2COC(O2)C2OC12` [Monomer T, 1,6:2,3-dianhydro-4-O-(2-(2-(2-metoxyethoxy)ethoxy)ethyl)-β-D-mannopyranose], the Solubility in water entry was “soluble”.
Take `COCCOC1C2COC(O2)C2OC12` [MEDM, 1,6:2,3-dianhydro-4-O-(2-methoxyethyl)-β-D-mannopyranose]: the Solubility in water entry is recorded as “soluble”.
